What was measured:
[1] = Particle size distribution by Malvern laser diffraction (Mastersizer S); format: physicochemical; settings: for Particle size distribution by Malvern, d(0.1): size below which 10% by volume of the population is found; for Particle size distribution by Malvern, d(0.5): size below which 50% by volume of the population is found; for Particle size distribution by Malvern, d(0.9): size below which 90% by volume of the population is found
Protocol: The particle size distributions were measured by Malvern Laser Diffraction, using the Mastersizer S model. Laser diffraction relies on the fact that diffraction angle of light is inversely proportional to particle size. Properties of particles are measured and interpreted as measurements of a sphere (a sphere being the only shape that can be described by one unique number). In addition, laser diffraction calculates a particle size distribution based around volume terms, thus eliminating particle count from the determination of particle size. The Mastersizer S model measures particles using a single technique and a single range setting.
D(0.1) is the particle size, in microns, below which 10% by volume distribution of the population is found. D(0.5) is the particle size, in microns, below which 50% by volume distribution of the population is found. D(0.9) is the particle size, in microns, below which 90% by volume distribution of the population is found.

[2] = Insoluble matter test: sample mixed in deionized water at ambient temperature; format: physicochemical; settings: 55 mg sample in 0.5 mL deionized water
Protocol: (§1) The subject invention also provides a process for making a pharmaceutical composition comprising laquinimod sodium comprising: • a) obtaining a batch of laquinimod sodium; • b) determining whether insoluble matter is present in the batch of step a) by mixing a sample from the batch in deionized water at room temperature at a ratio of at least 110 mg of sample to 1.0 ml of water, and inspecting the resulting mixture for the presence of insoluble matter; and • c) mixing the batch of step a) with at least one pharmaceutically acceptable carrier if in step b) insoluble matter is determined to be present below a predetermined amount.
as §1, with “A” for “The subject invention also provides a”, “amount. […]” for “amount.”

[3] = Determination of powder density (bulk density, tapped density); format: physicochemical; settings: for Powder density, TD (tapped density): 1250 taps; for Powder density, BD (bulk density): loose, uncompacted powder
Protocol: As used herein, “bulk density” or “BD” refers to a density measurement of a loose, uncompacted substance, wherein the volume of the substance includes the air trapped between particles.
As used herein, “tapped density” or “TD” refers to a density measurement of a substance that has been tapped or vibrated, thus minimizing the volume of the substance by eliminating or minimizing the air trapped between particles.
Determination of Powder Density
• 1. Mix powder; • 2. Tare a 50 ml empty cylinder on a 0.01 g sensitivity balance; • 3. Transfer the powder, without compacting, to the cylinder being held at approximately a 45 degree angle to achieve an untapped apparent volume of 40 to 50 ml. • 4. Bring the cylinder containing the sample to a vertical position by a sharp move in order to level the volume for reading. • 5. Read the apparent volume (Va) to the nearest graduated unit; • 6. Weigh the cylinder with sample (the balance gives sample weight M); • 7. Calculate bulk density in g/ml according to the following equation: BD=M/Va; • 8. Perform steps 1-7 again and report the average data of duplicates. Tapped Density • 1. Put the same cylinder used to calculate Bulk Density in a Quantachrome Dual Autotap instrument; • 2. Perform 1250 taps; • 3. Read the tapped volume (Vf) to the nearest graduated unit; • 4. Calculate the tapped density in g/ml according to the following equation: TD=M/Vf; • 5. Perform steps 1-4 again and report the average data of duplicates. Determination of Particle Size

[4] = Solubility of laquinimod sodium in anti-solvents at room temperature (USP XXV terms); format: physicochemical; settings: room temperature (20-25° C.)
From the text: The solubility terms are defined below, in accordance with the United States Pharmacopoeia XXV. [table]

[5] = system: acute experimental autoimmune encephalomyelitis (aEAE) model; settings: U.S. Pat. No. 6,077,851; cited from earlier work
[6] = listed as Laguinimod Sodium according to Example 1 (batch B)

| Compound | Particle size distribution by Malvern, d(0.1) [1] [micron] | Particle size distribution by Malvern, d(0.5) [1] [micron] | Particle size distribution by Malvern, d(0.9) [1] [micron] | Powder density, TD (tapped density) [3] [g/ml] | Powder density, BD (bulk density) [3] [g/ml] | also measured |
| --- | --- | --- | --- | --- | --- | --- |
| CCN(C(=O)c1c([O-])c2c(Cl)cccc2n(C)c1=O)c1ccccc1.[Na+] [Recrystallized product (Example 15)] | 6.1 | 21.2 | 51.8 |  |  |  |
| CCN(C(=O)c1c([O-])c2c(Cl)cccc2n(C)c1=O)c1ccccc1.[Na+] |  |  |  |  |  | Dissolution in deionized water [2]: did not completely dissolve |
| CCN(C(=O)c1c([O-])c2c(Cl)cccc2n(C)c1=O)c1ccccc1.[Na+] [Recrystallized product (Example 14)] | 3.5 | 15.7 | 43.2 | 0.429 | 0.224 |  |
| CCN(C(=O)c1c(O)c2c(Cl)cccc2n(C)c1=O)c1ccccc1 [laquinimod sodium] |  |  |  |  |  | Solubility in acetone ([4]; acetone): practically insoluble; Solubility in ethanol ([4]; ethanol): slightly soluble; Solubility in isopropanol ([4]; isopropanol): very slightly soluble |
| CCN(C(=O)c1c([O-])c2c(Cl)cccc2n(C)c1=O)c1ccccc1.[Na+] [Laquinimod Sodium prepared according to Example 1 (batch A)] | 1.5 | 7.1 | 23.2 | 0.347 | 0.166 |  |
| CCN(C(=O)c1c([O-])c2c(Cl)cccc2n(C)c1=O)c1ccccc1.[Na+] [Laquinimod Sodium prepared according to Example 1 (batch C)] | 1.3 | 5.9 | 19.4 | 0.362 | 0.158 |  |
| CCN(C(=O)c1c([O-])c2c(Cl)cccc2n(C)c1=O)c1ccccc1.[Na+] [Laquinimod Sodium prepared according to Example 1 (batch B)] | 2.1 | 10.8 | 35.3 | 0.452 | 0.189 | Particle size distribution by Malvern, d(0.1) [1, 6]: 2.1 micron; Particle size distribution by Malvern, d(0.5) [1, 6]: 10.8 micron; Particle size distribution by Malvern, d(0.9) [1, 6]: 35.3 micron |
| CCN(C(=O)c1c([O-])c2c(Cl)cccc2n(C)c1=O)c1ccccc1.[Na+] [Re-acrystallized product] | 13.3 | 51.1 | 105.1 | 0.758 | 0.498 |  |
| CCN(C(=O)c1c([O-])c2c(Cl)cccc2n(C)c1=O)c1ccccc1.[Na+] [Recrystallized product (Example 16)] | 15.7 | 65.5 | 156.4 |  |  |  |
| CCN(C(=O)c1c(O)c2c(Cl)cccc2n(C)c1=O)c1ccccc1 [Laquinimod, N-ethyl-N-phenyl-1,2,-dihydro-4-hydroxy-5-chloro-1-methyl-2-oxoquinoline-3-carboxamide] |  |  |  |  |  | Efficacy in the aEAE model [5]: effective |
